According to patent US12162918B2, “Periostin compounds for the treatment of haematological complications” (Chemotherapeutisches Forschungsinstitut Georg-Speyer-Haus, priority 2018, dated 2024):
“Also recorded” adds a separate entry of the source.

Assays:
distal femora = test: Bone histomorphometry of distal femora; assay type: in vivo, mice
From the text: The femora were isolated and first fixed in 4% paraformaldehyde at 4C overnight and then in 70% ethanol for an additional 5 days. Fixed bones were dehydrated in graded ethanol, then embedded in methyl methacrylate without demineralization. Undecalcified 5 μm thick longitudinal sections were obtained using a microtome (RM2255, Leica Biosystem, IL, USA). The sections were stained with Goldner Trichrome and at least two consecutive sections per specimen were examined for measurements of cellular parameters. A standard histomorphometric analysis of the femur methaphysis was performed using the Osteomeasure analysis system (Osteometrics Inc, Decatur, GA, USA). Measurements were performed 200 μm below the distal growth plate. The observer was blinded to the experimental group at the time of measurement. The cellular parameters were calculated and expressed according to the standardized nomenclature (Dempster et al., 2013).

[1] = test system: Lin− hematopoietic cells on stroma cells; test: Cobblestone-formation and coculture assay of Lin− cells on stroma cells; assay type: cell-based, mice
Description: In the co-culture and cobblestone assays 20,000 Lin− cells were plated on stroma cells, which had been grown and expanded from vehicle- or warfarin-treated mice in medium (α-MEM medium supplemented with 20% fetal bovine serum, 1% penicillin/streptomycin, 1% L-Glutamine) containing vehicle or warfarin (2 μM). Conditioned medium was harvested from stroma from 5 mice grown in the above medium containing vehicle or warfarin for 7 days. Consequently, 100,000 Lin− cells were grown for 2-3 days in the conditioned medium and analyzed for cell counts by flow cytometry. Where indicated, the conditioned medium was concentrated using Microsep Advance Centrifugal Devices 30K Omega (Pall Life Sciences, Portsmouth, UK).
For all coculture assays hematopoietic and stroma cells were derived from the same mouse strain (C57/B16). Stroma cells were used after a maximum of two passages and when they were 70-80% confluent. Stroma cells were derived by crushing bones from mice, plating them in α-MEM medium containing 20% fetal calf serum, penicillin/strptomycin and by removing non-adherent hematopoietic cells the following day, as described (Mukherjee et al., 2008).

wildtype mice = test: 5-fluorouracil-induced hematopoietic stress in warfarin-treated mice; assay type: in vivo
Description: (§1) 0.5 mg/kg/d or 0.05 mg/kg/d of warfarin, resuspended in phosphate-buffered saline was administered to mice via subcutaneously implanted osmotic minipumps (ALZET minipumps, Cupertino, CA). The osmotic minipumps were changed after 14 days (if the experiment went beyond 14 days of treatment). Sham operated (skin incision and suture) mice served as controls. Warfarin treatment continued for 10-14 days. In the xenotransplantation experiments the mice were treated with warfarin via the drinking water (or normal drinking water) at a dose of 0.72 mg/100 ml for a total of 3 days a week (Pfeilschifter et al., 2011).
5-fluorouracil was intraperitoneally injected every week at a dose of 75 mg/kg for a total of 4 doses or as a one time dose of 200 mg/kg. Recombinant mouse periostin (R&D Systems, Minneapolis, MN, cat. no. 2955-F2), produced in the Sf21 (baculovirus)-derived insect cell line, was administered intravenously at a dose of 2-4 μg per day and vitamin K was given at a dose of 15 mg/kg by oral gavage for four consecutive days.

human CD34+ cells = test: Intrafemoral cotransplantation of human CD34+ cells with treated human stroma cells into NSG mice; assay type: in vivo
Description: For the intrafemoral co-transplantation experiments 0.8×10^5 human CD34+ cells or 1×10^5 Lin− cells from Actin-DsRed reporter mice were mixed with 5×10^5 human or murine stroma cells which had been expanded in vitro and pretreated with vehicle or 2 μM warfarin for 14 days. The human stromal cells had been obtained via flushing of discarded bones from the orthopedic operating room, as approved of by the local ethics committee.
We assessed the complete blood count of vehicle or warfarin-treated mice using a complete blood count analyzer (Scil Vet ABC, Gurnee, IL). Peripheral blood and bone marrow samples were stained with antibodies for flow cytometry, which was performed on a BD LSR Fortessa (BD Biosciences, Heidelberg, Germany). The lineage antibody cocktail contained antibodies to B220, CD5, Ter119, F4/80 and CD11b. Engraftment of human cells in NSG mice was assessed using anti-human CD45 (BD Biosciences, San José, CA).
Stroma and hematopoietic cells (purified for CD34+) were taken from the iliac crest of healthy donors of allogeneic bone marrow.

HSPC = test: Methylcellulose colony assay of BM cells from treated mice; assay type: cell-based; settings: from warfarin-treated vs control mice, P=0.02
From the text: For the methylcellulose colony assays, we plated 10,000 total BM cells from vehicle- or warfarin-treated mice in methylcellulose (M3434, Stem Cell Technologies, Vancouver, Canada). We scored colonies after 10 days.

F4/80+ macrophages = test: Macrophage coculture assay and periostin in macrophage conditioned medium; assay type: cell-based, mice
From the text: For the macrophage coculture assay F4/80+ macrophages were sorted from the bone marrow of control or warfarin-treated mice, plated and cocultured with 20,000-30,000 Lin− BM cells as from the following day.

[2] = test system: bone marrow Lin− and LKS cells; test: Apoptosis, cell cycle, pAKT and macrophages in bone marrow of warfarin-treated mice; assay type: in vivo
Description: as §1
For cell cycle analysis cells were permeabilized and fixed with the cytoperm/cytofix kit (BD Biosciences, San Jose, CA), followed by staining with an antibody to Ki67-PE (Biolegend, San Diego, CA) overnight at 4 C. Consequently, cells were washed and resuspended in PBS with DAPI (1 ng/ml). For detection of apoptosis cells were first stained for surface markers, washed with Annexin V buffer (Life Technologies, Darmstadt, Germany), stained with Annexin V-PE (Life Technologies, Darmstadt, Germany), washed with Annexin V binding buffer, resuspended in PBS with DAPI and analyzed.
The PE-labelled anti-pAKT antibody (Cell signaling, #5315, Danvers, MA) was used for intracellular flow cytometry after fixation and permeabilization of the cells.

stroma cells = test: Focused gene expression analysis of stroma cells; assay type: cell-based, mice; settings: warfarin- compared to vehicle-treated stroma cells

CC(=O)CC(c1ccccc1)c1c(O)c2ccccc2oc1=O (stereo not drawn) [warfarin]
ratio of bone volume/tissue volume (BV/TV) (distal femora; P<0.001): decreased
number of osteoblasts (N.Ob/B.Pm) (distal femora; P=0.0001): significantly increased
osteoblast surface (Ob.S/BS) (distal femora; P=0.0008): significantly increased
osteoclast surface (Oc.S/BS) (distal femora; P=0.01): significantly increased
osteoid volume (OV/BV) (distal femora; P=0.046): significantly increased
cancellous bone mass (distal femora; distal femora, warfarin-treated vs control mice): dramatic reduction; also recorded: significant reduction
osteoclast differentiation or number (N.Oc/B.Pm) (distal femora; mouse, in vivo): absence of changes
trabecular number and thickness (distal femora; mouse, in vivo): reduced
trabecular separation (distal femora; mouse, in vivo): increased
annexin V+ dead hematopoietic cells in coculture with stroma cells ([1]; in the presence of warfarin vs vehicle, P=0.04): modest increase
number of cobblestone-forming areas ([1]; untreated Lin− cells on previously warfarin-treated stroma, P=0.03): significantly decreased
leukocyte counts after 5-fluorouracil (wildtype mice; 7 days after one-time dose of 200 mg/kg 5-fluorouracil, P=0.03): lower
survival (wildtype mice; higher dose (0.5 mg/kg), 75 mg/kg 5-fluorouracil days 0, 7, 14, 21, P=0.0004 Log-rank): similarly shortened
survival (wildtype mice; lower dose (0.05 mg/kg), 75 mg/kg 5-fluorouracil days 0, 7, 14, 21, P=0.02 Log-rank): similarly shortened
huCD45+ engraftment in femora (human CD34+ cells; 6 months after transplantation): only trends towards lower
engraftment of human CD45+ leukocytes (human CD34+ cells; cotransplanted with warfarin-treated human stroma, 4 weeks, P=0.046): decreased engraftment
colony-forming ability of HSPC (HSPC): significantly impaired
percentage of Annexin V+ apoptotic leukocytes (F4/80+ macrophages; untreated Lin− cells on warfarin-treated sorted F4/80+ macrophages, P=0.034): increased
total periostin levels in conditioned medium from macrophages (F4/80+ macrophages; vehicle- versus warfarin-treated macrophages, coimmunoprecipitation): no significant reduction
annexin V+ DAPI+ dead LKS cells in bone marrow ([2]; after 6 weeks, P=0.03): modest increase
annexin V+ DAPI+ dead Lin− cells in bone marrow ([2]; after two weeks, P=0.038): modest increase
macrophages in the bone marrow of primary mice ([2]; warfarin vs controls): not reduced
percentage of LKS cells in the Go phase of the cell cycle ([2]; warfarin vs vehicle, P=0.005): significantly increased
pAKT+ Lin− cells in the bone marrow ([2]; warfarin-treated vs control mice, P=0.04): significant reduction
expression of C-X-C motif chemokine 12 (CxCl12) (stroma cells): trend towards increased expression
expression of osteopontin, Runx 2, Ccl3, Angpt1, Igf1, Notch1 and Wnt7b (stroma cells): significant decreases
expression of stem cell factor (SCF; Kitl) (stroma cells): unchanged
